Source: patent US10238631B2, “Sesquiterpene derivatives and their use in inflammation or cancer treatment” (Academia Sinica, priority 2014, dated 2019)
pIC50: −log10 of the molar value. Values joined by “and” are separate entries in the source; they are usually repeats but may differ in a detail not shown here. Equal values may be shown once. Read-outs that look alike come from different tables or passages of the source.

Assays:
[1] = tested on: SK-N-MC neuroepithelioma line; assay: MTT cell viability assay, SK-N-MC; assay type: cell-based; settings: Homo sapiens, 24 h
Procedure: (§1) Normal or cancer cells (2×10^3 to 1×10^4 cells/well) were seeded in 96-well plate for overnight and treated with different compounds for 24 h to 72 h. Cells growth were determined by MTT-based colorimetric assays according to. Viability of the test cells treated with vehicle (0.5% DMSO) only was defined as 100% viable. Survival of cells after treatment with DETDs was calculated using the following formula: viable cell number (%)=OD570 (treated cell culture)/OD570 (vehicle control)×100.
(§2) Based on toxicity results of DET and DETDs on different breast cancer and melanoma cell lines, we selected DETD-6, -32, -35 and -39, under the consideration of structure activity relationship for evaluating their suppression effect against other cancer types of cell line with indicated tumor origin in Table 5. […] The cells were treated with compounds for 24 h and then subjected to MTT assays.

[2] = tested on: Melanocyte (Normal cells); assay: MTT cell viability assay, normal melanocytes; assay type: cell-based, human; settings: 24 h; for pIC50: Homo sapiens, Melanocyte
Method in brief: (§3)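 Overnight-seeded cells (2×10^3–1×10^4/well) → compound 24–72 h → MTT, OD570; % viable = treated/vehicle ×100, vehicle 0.5% DMSO.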

[3] = tested on: PC6 lung cancer cell line; assay: MTT cell viability assay, PC6; assay type: cell-based; settings: 24 h
Procedure: as §1, §2

U937 lymphoma line = assay: MTT cell viability assay, U937; assay type: cell-based; settings: Homo sapiens, U-937, 24 h
Procedure: as §1, §2

[4] = tested on: A375 human melanoma tumor; assay: A375 melanoma xenograft model in NOD/SCID mice; assay type: in vivo, mouse; settings: 20 mg/kg i.p.; PLX4032 every day, DET and DETD-35 every two days
Procedure: (§4) A375 and A375-R melanoma cells (3×10^6) were injected subcutaneously to the flanks of the six weeks old NOD/SCID mice. One week after the inoculation, the mice were randomized into treated groups (n=8 per group) and the treatments were started. Body weight and tumor volume of the mice were recorded every three days using formula a×b^2×0.5, where a and b represented the larger and smaller tumor diameters.
We used A375 human melanoma xenograft model to evaluate the in vivo bioefficacy of DET. DETD-35, PLX4032 and compound drug combination. […] For single compound or drug treatment group, PLX4032 was administered i.p. every day and DET and DETD-35 were administered i.p. every two days. For combination treatment, PLX4032 was administered every two days while DET and DETD-35 were administered every four days. […] Compound-drug combinational treatments were carried out with alternative administration of DET (20 mg/kg) or DETD-35 (20 mg/kg) and PLX4032 (20 mg/kg) by which DET or DETD-35 and PLX4032 treatment frequency were only half of the single compound or drug administration alone.

[5] = tested on: TS/A (ER+, Her2−) murine mammary cancer cells; assay: MTT cell viability assay, TS/A cells; assay type: cell-based; settings: Mus musculus
Method in brief: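 Seed 2×10^3 to 1×10^4 cells/well, overnight. Treat with compounds 24 h to 72 h. Add MTT, read OD570. Express survival relative to 0.5% DMSO vehicle (100%).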

[6] = tested on: A498 kidney cancer cell line; assay: MTT cell viability assay, A498; assay type: cell-based; settings: Homo sapiens, 24 h
Procedure: as §1, §2

B16-F10 (NRAS mutation) = assay: MTT cell viability assay, B16-F10 melanoma; assay type: cell-based; settings: Mus musculus, B16-F10, 24 h
Method in brief: as §3

A375 (BRAF mutation) = assay: MTT cell viability assay, A375 melanoma; assay type: cell-based, human; settings: MTT
Method in brief: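 A375 cells were seeded at 2×10^3 to 1×10^4 per well overnight and then exposed to compounds for 24 h to 72 h. Viability was measured by MTT absorbance at OD570 relative to 0.5% DMSO vehicle (100%), and IC50 was derived from it. Combination with PLX4032 was scored by combination index.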

[7] = tested on: A375-R PLX4032-resistant melanoma tumor; assay: A375-R melanoma xenograft model in NOD/SCID mice; assay type: in vivo, mouse; settings: 20 mg/kg i.p. alone
Procedure: as §4
To study whether or not DETD-35 could overcome acquired resistance to BRAF inhibitor, we generated A375 cell line resistant to PLX4032 (designated A375-R) as described above. We then conducted A375-R orthotopic xenograft study.

[8] = tested on: U-87MG brain cancer cell line; assay: MTT cell viability assay, U-87MG; assay type: cell-based; settings: Homo sapiens, 24 h
Procedure: as §1, §2

[9] = tested on: NES-SA uterus cancer cell line; assay: MTT cell viability assay, NES-SA; assay type: cell-based; settings: 24 h
Procedure: as §1, §2

[10] = tested on: LPS-induced nitric oxide (NO) production in RAW 264.7 cells; assay: Nitric oxide production in LPS-stimulated macrophages (Griess); assay type: cell-based, mouse; settings: for pIC50: Mus musculus, LPS-stimulated RAW264.7, nitrite 24 h after LPS
Method in brief: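 RAW 264.7 macrophages (2×10^5 cells/well) were pretreated with compound for 1 h and then stimulated with 100 ng/μL LPS for 24 h. NO was measured as nitrite in the medium by the Griess reaction. Viability was checked in parallel by MTT.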

[11] = tested on: MeWo (No NRAS or BRAF mutation); assay: MTT cell viability assay, MeWo melanoma; assay type: cell-based, human; settings: 24 h
Method in brief: as §3

[12] = tested on: KATO III stomach cancer cell line; assay: MTT cell viability assay, KATO III; assay type: cell-based; settings: Homo sapiens, 24 h
Procedure: as §1, §2

[13] = tested on: melanoma cell lines B16-F10, MeWo, A375, A2058, HTB-68; assay: MTT cell viability assay, all melanoma cell lines; assay type: cell-based; settings: 24 h, read-out: IC50 values over all types of melanoma cell lines
Method in brief: as §3

[14] = 24 h, read-out: IC50 on cell viability, TS/A (ER+, Her2−)
[15] = Table 5, 24 h, read-out: IC50 viability TS/A (mouse) (Breast)
[16] = 24 h, read-out: IC50 on cell viability, B16-F10 (NRAS mutation)
[17] = Table 5, 24 h, read-out: IC50 viability B16-F10 (mouse) (Skin)
[18] = Homo sapiens, A-375, 24 h, 24 h, read-out: IC50 on cell viability, A375 (BRAF mutation)

SMILES | pIC50 [1] | pIC50 [2] | pIC50 [3] | pIC50 (U937 lymphoma line) | reduction of tumor mass vs tumor control [4] | pIC50 [5, 14] | pIC50 [5, 15] | pIC50 [6] | pIC50 (B16-F10 (NRAS mutation); [16]) | pIC50 (B16-F10 (NRAS mutation); [17]) | pIC50 (A375 (BRAF mutation); [18]) | reduction of tumor mass [7] | pIC50 [8] | pIC50 [9] | pIC50 [10] | pIC50 ([11]; Homo sapiens, MeWo) | pIC50 [12] | also measured
C=C(C)C(=O)O[C@H]1CC2=C[C@@H](C/C(C)=C/[C@H]3OC(=O)C(=C)[C@H]13)OC2=O [DET, deoxyelephantopin, reference compound] | 6.29 | < 5.00 | 6.40 | 6.32 | 47.5% | 5.64 | 5.59 | 5.55 | ~5.22 | 5.22 | ~5.22 | 32% | 6.00 | 6.05 | 5.54 | < 5.00 | 5.83 | pIC50 (A375 (BRAF mutation); 24 h, read-out: IC50 on cell viability, A375 (BRAF mutation)): 5.23; pIC50 [11]: < 5.00
C=C1C(=O)O[C@H]2CC3=C[C@@H](C/C(C)=C/[C@@H](OC(=O)Cc4cccc5ccccc45)[C@H]12)OC3=O [DETD-35] | 6.59 | < 5.00 | 6.47 | 6.74 | 70.5% | 5.77 | 5.77 | 6.10 | 5.57 | 5.57 | 5.60 | 46.9% | 6.47 | 6.47 | 5.82 | 5.22 | 6.19 | IC50 on cell viability, Melanocyte (Normal cells) [2]: no detected toxicity; pIC50 [13]: 5.00 to 5.80 and 5.22 to 5.60; pIC50 (A375 (BRAF mutation); 72 h, read-out: IC50 on A375 cells): 6.10; pIC50 (A375 (BRAF mutation); Homo sapiens, A-375, 72 h, 72 h, read-out: IC50 on A375 cells): 6.07; fold decrease in IC50 of NO production vs DET [10]: 2 fold
